Experiment [1] concerns A549 (lung). The experiment can be described thus: SRB anti-tumour (growth inhibition) assay, A549. The format is cell-based. Particulars: Homo sapiens, 48 h exposure, read-out: GI50 (concentration inhibiting 50% of cell growth). As for the experimental part:
(§1) The compounds generated were tested against a series of cell lines from tumours. It quantitatively determined the cell growth and the viability, using a colorimetric assay type, using the reaction with sulforhodamine B (SRB), according to the technique described by Faircloth et al. (Journal of Tissue and Culture Methods 1988, 11, 201-205).
(§2) 96-well microtitre plates are inoculated with cells (5×10^3 cells per well) in aliquots of 195 μl of medium, incubating them during 18 h, in a medium without added compound, to allow the cells to adhere to the surface. Next, the compounds to be tested are added, in samples of 5 μl, at a range of concentrations of 10 to 10^−8 μg/ml, dissolved in DMSO/EtOH (0.2% in PS buffer). After 48 h exposure, the anti-tumour effect is measured using the Sulforhodamine B (SRB) technique: the cells are fixed adding 50 μl of cold […] (50%) (w/v) and it is incubated for 60 min. at 4° C. The plates are washed with deionized water and dried. 100 μl of SRB solution (0.4% w/v in 1% acetic acid) to each well and it is incubated during 10 min. at ambient temperature. The non-bound SRB is eliminated, washing with 1% acetic acid. The plates are air dried and the bound colorant is dissolved with Tris buffer. The optical densities are read in an automatic plate spectrophotometer reader at a wavelength of 490 nm.
(§3) For the compounds of formula (III), (IV), (V), (VI), (VII), (VIII), (IX) and the compounds of formula (XII), (XIII), (XIV), (XV), (XVI) and (XVIII).

The target in experiment [2] is T1, FGFR1 (Homo sapiens, UniProt P11362).
T1 construct: purchased Upstate
Nature of the experiment: LabChip (Caliper) kinase assay, FGFR1. The format is biochemical. To be noted: for inhibition at 0.01 µM: compound at 10 nM; for inhibition at 0.01 µM / inhibition at 0.1 µM: read-out: remaining kinase activity (in %) / percentage of inhibition; for inhibition at 0.1 µM: compound at 100 nM; for pIC50: ATP at Km, read-out: CI50 (the source's name). As for the experimental part: (§4) The analysis of kinase activity described here was performed using LabChip (Caliper Life Sciences), specifically the Caliper LC3000 and the EZ Reader II instruments.
(§5) The kinase assay used measures the conversion of a fluorescent peptide (substrate) to a phosphorylated product. The reaction mixture, in a microplate well, is introduced by a capillary in a chip where the non-phosphorylated substrate and the phosphorylated product are separated by […]. The intensity of the fluorescent signal over time is related to the reaction progress. The phosphorylated product migrates quicker than the non-phosphorylated substrate and the signals of the two forms of the peptide appear as differentiated peaks. The Caliper determines the peak height and calculates the ratio of product to the peak sum (P/(P+S)). This value is used to compare wells with compounds and wells with controls and thus determine the % of inhibition for the given product.
(§6) The followings kinases were used for the enzymatic inhibition studies, between brackets the value of the Michaelis-Menten constant, Km, of the ATP (Adenosine triphosphate) for each kinase, in μM: obtained from Carna Biosciences: MAPKAPK2 (4.6), AurA (3.6), AurB (5), PKCζ (3.8), RSK1 (23.3), PRAK (5), Erk1 (33.4), PKD2 (32.1), CK1d (16.3), CHK1 (33), ABL (61.7), FYN (36), LYNa (17), CHK2 (57.8), MET (79.5), LCK (28.5), SRC (38), GSK3β (7.3), Erk2 (62.1), PKACα (1.7), AKT2 (186.1), INSR (871.8), p38a (396.5), AKT1(48), MSK1 (21.2), PKCβ2 (84.8), ROCK2 (3.3), PIM2 (4.9), AMPK (38.6), KDR (164.8), IRAK4 (196.5), SGK1 (121.8), SYK (33.5); obtained from Invitrogen: CDK2 (57.6), BTK (123), HGK (80); obtained from Upstate: MST2 (36.6), PKGα (16), PAK2 (1.9), IGF1R (320), FGFR1 (171), MARK1 (33), CAMK2δ (22.4), c-TAK1 (66), DYRK1a (18.1), CaMK4 (3.9), FLT3 (350), c-Raf (6.2), P70S6K (95).
(§7) The compounds were dissolved in 100% DMSO and were diluted at 25 times the final concentration desired for the assay. In the case of the determination of Cl50, serial dilutions were made to reach eight concentrations and give rise to the inhibition curve. 1 μL of each concentration is transferred, in duplicate to a 384-well microplate. 12 μL of enzymatic buffer is added to each well containing purified kinase (several suppliers as indicated above), 100 mM HEPES, pH 7.5, 1 mM DTT (Calbiochem), 0.002% Brij-35 (Sigma) and also in presence of 10 mM MgCl2 as cofactor, except for INSR and IRAK4 wherein 10 mM MnCl2 is used instead of MgCl2. For the kinases CAMK26 and CAMK4, 1 mM CaCl2 and 6.7 μg/mL of calmodulin are also added. For KDR kinase, 0.05% of the CHAPSO detergent is added. For the c-Raf kinase, 10 mM MnCl2 is added. For PKCβ2 0.02 μg/mL of PS/PMA is added. For PKGα se 10 μM of cGMP (cyclic guanosine monophosphate) is added. The compound and the enzyme are left for 15 minutes preincubation and, then, the following are added to each well: 12 μL of peptide buffer/ATP containing 100 mM HEPES, pH 7.5, 1.5 μM peptide marker with fluorescein (specific for the corresponding kinase), ATP (at concentration KM), and 0.002% Brij-35 to start the reaction. Generally, the reactions are incubated for 1-1.5 h at ambient temperature to obtain an adequate conversion (15-40%) of the peptide to the phosphorylated product. The reactions were ended by the addition of 45 μL of buffer containing 0 mM EDTA. The microplates were read by the LabChip 3000 using a 12-channel LabChip. The P/(P+S) values were obtained as described above and the CI50 curves were generated using XIfit.
(§8) Table 9a has the 0150 data obtained in pairs of compound-kinase selected from the compounds of formula (VII), (VIII), (IX), (XVI), (XVII) and (XVIII) after taking inhibition measurements at 100 nM and 10 nM. Those couples that provide >70% of inhibition at 10 nM were consider for measuring its IC50. […]

The target in experiment [3] is T2, SYK (Homo sapiens, UniProt P43405).
T2 construct: purchased Carna Biosciences
The experiment can be described thus: LabChip (Caliper) kinase assay, SYK. To be noted: for inhibition at 0.01 µM: compound at 10 nM; for inhibition at 0.01 µM / inhibition at 0.1 µM: read-out: remaining kinase activity (in %) / percentage of inhibition; for inhibition at 0.1 µM: compound at 100 nM; for pIC50: ATP at Km, read-out: CI50 (the source's name). Format: biochemical. As for the experimental part:
as §4, §5, §6, §7, §8

The target of experiment [4] is T3, KDR (Homo sapiens, UniProt P35968).
T3 construct: purchased Carna Biosciences
The experiment can be described thus: LabChip (Caliper) kinase assay, KDR. Particulars: for inhibition at 0.01 µM: compound at 10 nM; for inhibition at 0.01 µM / inhibition at 0.1 µM: read-out: remaining kinase activity (in %) / percentage of inhibition; for inhibition at 0.1 µM: compound at 100 nM; for pIC50: ATP at Km, read-out: CI50 (the source's name). Format: biochemical. As for the experimental part:
as §4, §5, §6, §7, §8

Experiment [5] concerns HT29 (colon). The experiment can be described thus: SRB anti-tumour (growth inhibition) assay, HT29. The format is cell-based. Particulars: Homo sapiens, HT-29, 48 h exposure, read-out: GI50 (concentration inhibiting 50% of cell growth). As for the experimental part: as §1, §2, §3
For experiment [6], the system named is MDA-MB-231 (breast). Nature of the experiment: SRB anti-tumour (growth inhibition) assay, MDA-MB-231. Format: cell-based. To be noted: Homo sapiens, 48 h exposure, read-out: GI50 (concentration inhibiting 50% of cell growth). As for the experimental part:
as §1, §2, §3

The structures appear in SMILES notation. pIC50: −log10 of the molar value. A value given as a limit tells only on which side of the number the result lay.

T3 sequence (P35968 20-1356): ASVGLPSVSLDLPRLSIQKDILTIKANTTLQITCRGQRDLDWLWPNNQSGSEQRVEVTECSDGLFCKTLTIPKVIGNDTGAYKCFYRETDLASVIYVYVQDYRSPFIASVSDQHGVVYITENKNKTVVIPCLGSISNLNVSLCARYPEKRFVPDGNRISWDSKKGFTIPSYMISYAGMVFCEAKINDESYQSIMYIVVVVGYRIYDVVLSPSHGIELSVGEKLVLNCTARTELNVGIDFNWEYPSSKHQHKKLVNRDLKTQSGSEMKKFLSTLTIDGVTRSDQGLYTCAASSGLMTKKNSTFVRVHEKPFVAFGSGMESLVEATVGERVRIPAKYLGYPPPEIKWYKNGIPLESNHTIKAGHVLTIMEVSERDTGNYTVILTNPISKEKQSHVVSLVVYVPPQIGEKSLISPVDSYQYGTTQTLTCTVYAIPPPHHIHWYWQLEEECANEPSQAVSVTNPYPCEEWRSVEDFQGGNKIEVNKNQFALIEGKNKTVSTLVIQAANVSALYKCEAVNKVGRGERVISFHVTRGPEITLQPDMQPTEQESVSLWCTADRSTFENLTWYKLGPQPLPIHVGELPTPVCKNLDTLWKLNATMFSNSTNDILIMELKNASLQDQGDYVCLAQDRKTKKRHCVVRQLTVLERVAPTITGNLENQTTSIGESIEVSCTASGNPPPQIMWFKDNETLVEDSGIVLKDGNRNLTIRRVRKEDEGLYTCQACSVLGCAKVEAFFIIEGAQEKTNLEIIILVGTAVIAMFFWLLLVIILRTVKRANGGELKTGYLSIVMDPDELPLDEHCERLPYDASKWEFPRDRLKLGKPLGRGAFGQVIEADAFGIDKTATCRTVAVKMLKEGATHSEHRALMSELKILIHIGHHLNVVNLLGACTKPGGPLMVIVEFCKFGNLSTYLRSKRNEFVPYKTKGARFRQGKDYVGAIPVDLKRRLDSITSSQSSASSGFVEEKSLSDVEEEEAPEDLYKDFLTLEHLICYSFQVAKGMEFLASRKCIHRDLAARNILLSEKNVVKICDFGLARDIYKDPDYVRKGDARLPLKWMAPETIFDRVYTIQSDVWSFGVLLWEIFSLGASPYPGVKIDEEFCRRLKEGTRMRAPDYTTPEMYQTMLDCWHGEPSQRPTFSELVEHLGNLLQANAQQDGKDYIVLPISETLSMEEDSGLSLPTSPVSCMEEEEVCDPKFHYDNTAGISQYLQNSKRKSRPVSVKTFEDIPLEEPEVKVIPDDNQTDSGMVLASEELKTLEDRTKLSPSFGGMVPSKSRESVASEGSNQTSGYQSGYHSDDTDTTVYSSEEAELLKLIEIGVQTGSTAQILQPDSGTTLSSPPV
T1 sequence (P11362 22-822, species assumed): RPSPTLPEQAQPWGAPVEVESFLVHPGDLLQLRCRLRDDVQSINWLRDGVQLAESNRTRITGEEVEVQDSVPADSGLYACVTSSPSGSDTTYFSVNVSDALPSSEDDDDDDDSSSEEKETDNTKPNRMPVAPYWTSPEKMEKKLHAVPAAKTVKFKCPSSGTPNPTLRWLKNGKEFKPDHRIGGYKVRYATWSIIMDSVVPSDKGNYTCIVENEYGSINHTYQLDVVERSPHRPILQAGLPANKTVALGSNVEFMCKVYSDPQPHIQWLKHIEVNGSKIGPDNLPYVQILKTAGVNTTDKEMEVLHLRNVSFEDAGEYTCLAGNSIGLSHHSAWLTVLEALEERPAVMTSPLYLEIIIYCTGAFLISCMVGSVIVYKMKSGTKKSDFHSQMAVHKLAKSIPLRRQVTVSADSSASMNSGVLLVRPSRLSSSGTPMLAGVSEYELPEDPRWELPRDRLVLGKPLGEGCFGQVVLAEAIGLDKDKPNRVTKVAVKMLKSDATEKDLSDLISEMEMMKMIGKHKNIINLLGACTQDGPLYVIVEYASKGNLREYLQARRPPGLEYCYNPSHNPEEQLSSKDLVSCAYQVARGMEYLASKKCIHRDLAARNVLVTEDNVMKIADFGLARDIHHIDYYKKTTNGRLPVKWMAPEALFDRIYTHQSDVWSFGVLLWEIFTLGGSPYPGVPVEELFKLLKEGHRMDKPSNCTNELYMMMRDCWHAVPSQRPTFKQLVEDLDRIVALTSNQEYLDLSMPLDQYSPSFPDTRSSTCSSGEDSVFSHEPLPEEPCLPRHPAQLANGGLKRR

As to `C[C@H]1O[C@@H](n2c3ccccc3c3c4c(c5c6ccccc6[nH]c5c32)CNC4=O)C[C@@H](O)[C@@H]1O` [formula (XV), N^13-1′-β-D-olivosyl-k252c], the GI50 in experiment [1] worked out at 4980 nM; in experiment [5], 3850 nM; in experiment [6] it was 3170 nM. For the same compound, the inhibition at 0.01 µM was -2% in experiment [2], 7% in experiment [3] and -4% in experiment [4]. In addition, the inhibition at 0.1 µM in experiment [2] came to 7%; in experiment [3], 29%; in experiment [4], 18%.
For the compound `C[C@]12O[C@H](C[C@H](O)[C@H]1O)n1c3ccccc3c3c4c(c5c6ccccc6n2c5c31)CNC4=O` [formula (XVII), N^12-5′(S)-N^13-1′-(R)-L-olivosyl-k252c], the GI50 is 1020 nM in experiment [1], 1210 nM in experiment [5] and 1050 nM in experiment [6]. The pIC50 in experiment [2] was < 8.00.
In the case of `C[C@@H]1O[C@@H](n2c3ccccc3c3c4c(c5c6ccccc6[nH]c5c32)CNC4=O)[C@H](O)[C@H](O)[C@H]1O` [formula (XII), N^13-1′-β-L-rhamnosyl-k252c], the GI50 in experiment [1] stood at 2840 nM; in experiment [5], 2100 nM; in experiment [6], 1970 nM. Also, the inhibition at 0.01 µM is 1% in experiment [2], 8% in experiment [3] and -1% in experiment [4]. Also, the inhibition at 0.1 µM in experiment [2] came to 5%; in experiment [3], 10%; in experiment [4], 6%.
`C[C@H]1O[C@@H](n2c3ccccc3c3c4c(c5c6ccccc6[nH]c5c32)C(=O)NC4=O)C[C@@H](O)[C@@H]1O` [formula (VI), N^13-1′-β-D-olivosylarcyriaflavin]: the GI50 came to 2210 nM in experiment [1], 2160 nM in experiment [5] and 2430 nM in experiment [6]. For the same compound, the results for the inhibition at 0.01 µM in experiment [2], in experiment [3] and in experiment [4] were 1%, 5% and 2%, respectively. Also, the inhibition at 0.1 µM in experiment [2] is 25%; in experiment [3], 31%; in experiment [4], 40%.
Turning to `C[C@]12O[C@H]([C@H](O)[C@H](O)[C@H]1O)n1c3ccccc3c3c4c(c5c6ccccc6n2c5c31)C(=O)NC4=O` [formula (VII), N^12-5′(S)-N^13-1′-(R)-L-rhamnosylarcyriaflavin], the GI50 in experiment [1] was determined as 2040 nM; in experiment [5], 2450 nM; in experiment [6] it was 1350 nM. Besides, the values for the pIC50 in experiment [2], in experiment [3] and in experiment [4] were 8.05, 9.00 and 8.43, respectively.
For `C[C@]12O[C@H](C[C@@H](O)[C@H]1O)n1c3ccccc3c3c4c(c5c6ccccc6n2c5c31)C(=O)NC4=O` [formula (IX), N^12-5′(S)-N^13-1′-(R)-L-digitoxosylarcyriaflavin], the results for the GI50 in experiment [1], in experiment [5] and in experiment [6] were 5510 nM, 8160 nM and 8160 nM, respectively. In addition, the pIC50 in experiment [2] was < 8.00; in experiment [3], 8.64; in experiment [4], < 8.00.
As to `C[C@]12O[C@H](C[C@@H](O)[C@H]1O)n1c3ccccc3c3c4c(c5c6ccccc6n2c5c31)CNC4=O` [formula (XVIII), N^12-5′(S)-N^13-1′-(R)-L-digitoxosyl-k252c], the GI50 in experiment [1] was 1960 nM; in experiment [5] it was 1520 nM; in experiment [6], 1840 nM. Besides, the pIC50 in experiment [2] was < 7.00; in experiment [3] it was < 8.00; in experiment [4], < 8.00.
Take `C[C@]12O[C@H]([C@H](O)[C@H](O)[C@H]1O)n1c3ccccc3c3c4c(c5c6ccccc6n2c5c31)CNC4=O` [formula (XVI), N^12-5′(S)-N^13-1′-(R)-L-rhamnosyl-k252c]: the GI50 in experiment [1] turned out to be 610 nM; in experiment [5], 870 nM; in experiment [6] it was 590 nM.
As to `C[C@@H]1O[C@@H](n2c3ccccc3c3c4c(c5c6ccccc6[nH]c5c32)C(=O)NC4=O)C[C@H](O)[C@H]1O` [formula (IV), N^13-1′-β-L-olivosylarcyriaflavin], the GI50 came out at 8790 nM in experiment [1], 8790 nM in experiment [5] and 14100 nM in experiment [6]. Further, the values for the inhibition at 0.01 µM in experiment [2], in experiment [3] and in experiment [4] were 3%, 11% and 21%, respectively. Besides, the inhibition at 0.1 µM in experiment [2] was determined as 21%; in experiment [3] it was 35%; in experiment [4], 68%.
In the case of `C[C@@H]1O[C@@H](n2c3ccccc3c3c4c(c5c6ccccc6[nH]c5c32)CNC4=O)C[C@@H](O)[C@H]1O` [formula (XIV), N^13-1′-β-L-digitoxosyl-k252c], the GI50 stood at 3400 nM in experiment [1], 3400 nM in experiment [5] and 2490 nM in experiment [6]. Further, the inhibition at 0.01 µM in experiment [2] was 1%; in experiment [3], -1%; in experiment [4] it was 1%. Moreover, the inhibition at 0.1 µM turned out to be 5% in experiment [2], 11% in experiment [3] and 16% in experiment [4].
With `C[C@]12O[C@H](C[C@H](O)[C@H]1O)n1c3ccccc3c3c4c(c5c6ccccc6n2c5c31)C(=O)NC4=O` [formula (VIII), N^12-5′(S)-N^13-1′-(R)-L-olivosylarcyriaflavin], the GI50 was 5730 nM in experiment [1], 11200 nM in experiment [5] and 7500 nM in experiment [6]. In addition, the pIC50 in experiment [3] was 8.96; in experiment [4] it was 9.26.

The values are drawn from patent US8598132B2, “Glycosylated indolocarbazoles, method for obtaining same and uses thereof” (Universidad de Oviedo, priority 2008, dated 2013).
